ChEMBL document CHEMBL3098111, “Discovery of 2,5-diarylnicotinamides as selective orexin-2 receptor antagonists (2-SORAs)” (Bioorg Med Chem Lett, 2013)

How the values were obtained:
[1] = molecular target: T1, GABA-A receptor; alpha-1/beta-3/gamma-2 (Homo sapiens) (UniProt P14867+P18507+P28472); assay: Inhibition of human GABA alpha1beta3gamma2 receptor muscimol binding site at 10 uM relative to control; type: protein-complex assay
[2] = molecular target: T1, GABA-A receptor; alpha-1/beta-3/gamma-2 (Homo sapiens); assay: Inhibition of human GABA alpha1beta3gamma2 receptor at 10 uM relative to control; type: protein-complex assay
D(3) dopamine receptor [3] = molecular target: T2, D(3) dopamine receptor (Homo sapiens, UniProt P35462); assay: Inhibition of human dopamine D3 receptor at 10 nM relative to control
T2 sequence (P35462 whole entry): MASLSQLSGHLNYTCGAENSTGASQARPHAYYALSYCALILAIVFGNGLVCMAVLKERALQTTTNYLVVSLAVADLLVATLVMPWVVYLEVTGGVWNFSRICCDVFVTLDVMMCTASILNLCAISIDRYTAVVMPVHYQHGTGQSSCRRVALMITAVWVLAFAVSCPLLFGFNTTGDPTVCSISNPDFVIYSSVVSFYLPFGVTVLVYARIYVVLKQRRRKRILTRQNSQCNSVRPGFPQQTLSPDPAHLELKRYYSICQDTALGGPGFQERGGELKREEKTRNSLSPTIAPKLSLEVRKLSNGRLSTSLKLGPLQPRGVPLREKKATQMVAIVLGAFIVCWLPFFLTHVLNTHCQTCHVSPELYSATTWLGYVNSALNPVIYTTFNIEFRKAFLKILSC

[4] = molecular target: C-X-C chemokine receptor type 2 (Homo sapiens) (UniProt P25025); assay: Inhibition of human CXCR2 at 10 uM relative to control
[5] = molecular target: C-C chemokine receptor type 1 (Homo sapiens) (UniProt P32246); assay: Inhibition of human CCR1 at 10 uM relative to control
Chain of C-C chemokine receptor type 1 (Homo sapiens) (P32246 whole entry): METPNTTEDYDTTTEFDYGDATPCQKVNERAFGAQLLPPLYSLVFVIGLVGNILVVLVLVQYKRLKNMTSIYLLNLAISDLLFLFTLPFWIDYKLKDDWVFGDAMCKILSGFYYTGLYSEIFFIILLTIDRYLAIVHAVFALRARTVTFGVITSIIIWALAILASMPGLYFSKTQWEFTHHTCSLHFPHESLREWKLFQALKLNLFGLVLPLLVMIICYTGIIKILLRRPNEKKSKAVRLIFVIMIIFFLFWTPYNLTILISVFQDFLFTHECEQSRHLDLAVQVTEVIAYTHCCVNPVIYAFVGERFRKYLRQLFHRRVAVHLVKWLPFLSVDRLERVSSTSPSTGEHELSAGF

[6] = molecular target: B2 bradykinin receptor (Homo sapiens) (UniProt P30411); assay: Inhibition of human bradykinin B2 receptor at 10 uM relative to control
[7] = molecular target: Androgen receptor (Rattus norvegicus) (UniProt P15207); assay: Inhibition of rat androgen receptor at 10 uM relative to control
[8] = molecular target: Beta-2 adrenergic receptor (Homo sapiens) (UniProt P07550); assay: Inhibition of human beta2 adrenergic receptor at 10 uM relative to control
Chain of Beta-2 adrenergic receptor (Homo sapiens) (P07550 whole entry, looked up): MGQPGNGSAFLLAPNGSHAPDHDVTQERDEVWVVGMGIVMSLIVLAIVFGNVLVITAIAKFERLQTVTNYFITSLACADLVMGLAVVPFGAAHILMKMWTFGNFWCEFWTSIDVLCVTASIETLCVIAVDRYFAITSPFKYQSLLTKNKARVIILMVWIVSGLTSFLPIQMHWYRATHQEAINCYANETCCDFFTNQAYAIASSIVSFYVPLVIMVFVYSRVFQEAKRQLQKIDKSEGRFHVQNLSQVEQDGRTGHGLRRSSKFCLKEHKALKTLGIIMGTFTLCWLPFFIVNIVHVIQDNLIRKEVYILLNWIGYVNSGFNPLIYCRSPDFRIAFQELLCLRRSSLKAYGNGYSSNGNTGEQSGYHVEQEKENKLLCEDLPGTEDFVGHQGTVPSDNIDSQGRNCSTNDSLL

[9] = molecular target: Alpha-2A adrenergic receptor (Homo sapiens) (UniProt P08913); assay: Inhibition of human alpha2A adrenergic receptor at 10 uM relative to control
[10] = molecular target: Adrenergic receptor alpha-1 (Rattus norvegicus) (UniProt P15823+P23944+P43140); assay: Inhibition of rat alpha1 adrenergic receptor at 10 uM relative to control
[11] = molecular target: Neprilysin (Homo sapiens) (UniProt P08473); assay: Inhibition of human neutral endopeptidase at 10 uM relative to control
[12] = molecular target: Neutrophil elastase (Homo sapiens) (UniProt P08246); assay: Inhibition of human neutrophil elastase 2 at 30 uM relative to control
Caspase-8 (Homo sapiens) = Caspase-8 (Homo sapiens) (UniProt Q14790); assay: Inhibition of human caspase 8 at 10 uM relative to control
[13] = molecular target: Nitric oxide synthase 1 (Rattus norvegicus) (UniProt P29476); assay: Inhibition of rat nNOS at 10 uM relative to control
D(3) dopamine receptor [14] = molecular target: T2, D(3) dopamine receptor; assay: Inhibition of human dopamine D3 receptor at 10 uM relative to control
Oryctolagus cuniculus = organism: Oryctolagus cuniculus; assay: Inhibition of rabbit monoamine transporter at 10 nM relative to control
Rattus norvegicus = organism: Rattus norvegicus; assay: Inhibition of rat choline transporter at 10 uM relative to control
Cavia porcellus = organism: Cavia porcellus; assay: Inhibition of guinea pig adenosine transporter at 0.1 uM relative to control
[15] = molecular target: Substance-K receptor (Homo sapiens) (UniProt P21452); assay: Inhibition of human NK2 receptor at 10 uM relative to control
Chain of Substance-K receptor (Homo sapiens) (P21452 whole entry): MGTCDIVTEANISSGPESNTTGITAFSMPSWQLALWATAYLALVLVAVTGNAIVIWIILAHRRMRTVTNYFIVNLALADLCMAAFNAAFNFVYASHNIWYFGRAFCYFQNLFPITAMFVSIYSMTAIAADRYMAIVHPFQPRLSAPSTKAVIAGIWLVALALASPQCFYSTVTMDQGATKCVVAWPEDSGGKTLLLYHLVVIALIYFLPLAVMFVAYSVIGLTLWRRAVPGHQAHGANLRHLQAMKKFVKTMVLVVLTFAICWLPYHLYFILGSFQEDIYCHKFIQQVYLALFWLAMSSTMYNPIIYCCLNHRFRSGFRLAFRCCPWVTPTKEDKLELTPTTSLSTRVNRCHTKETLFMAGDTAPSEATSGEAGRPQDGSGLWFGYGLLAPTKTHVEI

[16] = molecular target: Neuromedin-K receptor (Homo sapiens) (UniProt P29371); assay: Inhibition of human NK3 receptor at 10 uM relative to control
[17] = molecular target: Somatostatin receptor type 5 (Homo sapiens) (UniProt P35346); assay: Inhibition of human SST5 receptor at 10 uM relative to control
[18] = molecular target: Somatostatin receptor type 3 (Homo sapiens) (UniProt P32745); assay: Inhibition of human SST3 receptor at 10 uM relative to control
Chain of Somatostatin receptor type 3 (Homo sapiens) (P32745 whole entry): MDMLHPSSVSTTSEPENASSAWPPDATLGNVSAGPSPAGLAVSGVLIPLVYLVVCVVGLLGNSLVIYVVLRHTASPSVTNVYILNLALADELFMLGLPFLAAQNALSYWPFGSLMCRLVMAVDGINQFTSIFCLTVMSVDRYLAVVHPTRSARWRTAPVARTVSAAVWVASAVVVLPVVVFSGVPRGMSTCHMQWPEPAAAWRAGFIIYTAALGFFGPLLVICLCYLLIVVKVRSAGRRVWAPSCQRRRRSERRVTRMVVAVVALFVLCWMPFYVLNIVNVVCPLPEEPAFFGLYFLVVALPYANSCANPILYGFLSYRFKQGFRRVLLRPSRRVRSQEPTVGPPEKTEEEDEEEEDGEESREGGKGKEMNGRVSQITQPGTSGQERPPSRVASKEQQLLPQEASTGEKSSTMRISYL

[19] = molecular target: 5-hydroxytryptamine receptor 2B (Homo sapiens, UniProt P41595); assay: Inhibition of human 5-HT2B receptor at 10 uM relative to control
[20] = molecular target: 5-hydroxytryptamine receptor 1B (Rattus norvegicus) (UniProt P28564); assay: Inhibition of rat 5-HT1B receptor at 1 uM relative to control
Chain of 5-hydroxytryptamine receptor 1B (Rattus norvegicus) (P28564 whole entry): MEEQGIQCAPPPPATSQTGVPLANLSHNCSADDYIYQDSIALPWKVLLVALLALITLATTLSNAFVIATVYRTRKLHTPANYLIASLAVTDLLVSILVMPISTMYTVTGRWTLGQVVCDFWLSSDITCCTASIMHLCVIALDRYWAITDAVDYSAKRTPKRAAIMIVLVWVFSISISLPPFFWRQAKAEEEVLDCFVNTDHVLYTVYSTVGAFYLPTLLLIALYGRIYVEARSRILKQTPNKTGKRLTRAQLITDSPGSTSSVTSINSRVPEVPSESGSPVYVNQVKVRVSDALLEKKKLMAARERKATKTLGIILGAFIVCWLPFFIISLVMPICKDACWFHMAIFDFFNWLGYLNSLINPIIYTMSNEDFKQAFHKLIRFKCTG

[21] = molecular target: T3, 5-hydroxytryptamine receptor 1A (Homo sapiens) (UniProt P08908); assay: Inhibition of human 5-HT1A receptor at 0.1 uM relative to control
T3 sequence (whole entry): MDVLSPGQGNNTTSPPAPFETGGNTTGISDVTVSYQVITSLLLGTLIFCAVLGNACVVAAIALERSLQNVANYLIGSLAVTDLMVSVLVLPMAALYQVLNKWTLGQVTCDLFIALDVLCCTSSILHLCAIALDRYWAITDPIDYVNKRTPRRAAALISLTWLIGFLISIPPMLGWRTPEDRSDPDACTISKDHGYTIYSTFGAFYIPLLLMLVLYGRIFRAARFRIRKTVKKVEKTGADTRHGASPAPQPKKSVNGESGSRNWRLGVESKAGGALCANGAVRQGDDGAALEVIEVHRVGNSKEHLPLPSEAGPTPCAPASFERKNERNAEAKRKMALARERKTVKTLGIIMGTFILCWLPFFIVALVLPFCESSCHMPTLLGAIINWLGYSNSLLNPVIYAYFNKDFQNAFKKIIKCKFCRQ

[22] = molecular target: Thromboxane A2 receptor (Homo sapiens) (UniProt P21731); assay: Inhibition of human thromboxane A2 receptor at 10 uM relative to control
Cricetinae = assay: Inhibition of hamster ATP-sensitive potassium channel at 10 uM relative to control
[23] = molecular target: Nociceptin receptor (Homo sapiens) (UniProt P41146); assay: Inhibition of human ORL1 receptor at 10 uM relative to control
Chain of Nociceptin receptor (Homo sapiens) (P41146 whole entry): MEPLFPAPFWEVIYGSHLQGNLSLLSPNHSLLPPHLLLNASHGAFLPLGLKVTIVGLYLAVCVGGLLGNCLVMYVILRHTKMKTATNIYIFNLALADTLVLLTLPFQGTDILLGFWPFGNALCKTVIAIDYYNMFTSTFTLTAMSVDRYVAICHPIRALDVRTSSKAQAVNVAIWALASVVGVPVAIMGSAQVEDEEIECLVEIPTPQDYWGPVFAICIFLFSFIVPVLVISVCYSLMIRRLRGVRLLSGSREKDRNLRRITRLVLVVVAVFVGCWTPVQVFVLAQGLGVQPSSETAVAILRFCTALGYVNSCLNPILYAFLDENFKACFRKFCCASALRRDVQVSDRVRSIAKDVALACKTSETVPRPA

[24] = molecular target: Oxytocin receptor (Homo sapiens) (UniProt P30559); assay: Inhibition of human oxytocin receptor at 10 uM relative to control
[25] = molecular target: Kappa-type opioid receptor (Homo sapiens) (UniProt P41145); assay: Inhibition of human kappa opioid receptor at 10 uM relative to control
Homo sapiens = organism: Homo sapiens; assay: Inhibition of human nicotinic acetylcholine receptor at 10 uM relative to control
[26] = molecular target: Muscarinic acetylcholine receptor M5 (Homo sapiens) (UniProt P08912); assay: Inhibition of human muscarinic M5 receptor at 10 uM relative to control
[27] = molecular target: Muscarinic acetylcholine receptor M3 (Homo sapiens) (UniProt P20309); assay: Inhibition of human muscarinic M3 receptor at 10 uM relative to control
[28] = molecular target: Melanocortin receptor 5 (Homo sapiens) (UniProt P33032); assay: Inhibition of human MC5 receptor at 10 uM relative to control
Chain of Melanocortin receptor 5 (Homo sapiens) (P33032 whole entry): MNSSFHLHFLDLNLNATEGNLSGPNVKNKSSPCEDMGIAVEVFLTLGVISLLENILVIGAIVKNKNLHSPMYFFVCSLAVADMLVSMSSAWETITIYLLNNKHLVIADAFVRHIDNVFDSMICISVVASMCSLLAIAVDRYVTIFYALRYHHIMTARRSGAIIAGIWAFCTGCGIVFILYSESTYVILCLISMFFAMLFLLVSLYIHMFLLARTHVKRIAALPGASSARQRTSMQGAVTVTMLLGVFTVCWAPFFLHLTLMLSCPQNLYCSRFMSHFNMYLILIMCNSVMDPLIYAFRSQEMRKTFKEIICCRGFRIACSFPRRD

[29] = molecular target: Insulin receptor (Rattus norvegicus) (UniProt P15127); assay: Inhibition of rat insulin receptor at 10 uM relative to control
Chain of Insulin receptor (Rattus norvegicus) (P15127 27-759 limits assumed): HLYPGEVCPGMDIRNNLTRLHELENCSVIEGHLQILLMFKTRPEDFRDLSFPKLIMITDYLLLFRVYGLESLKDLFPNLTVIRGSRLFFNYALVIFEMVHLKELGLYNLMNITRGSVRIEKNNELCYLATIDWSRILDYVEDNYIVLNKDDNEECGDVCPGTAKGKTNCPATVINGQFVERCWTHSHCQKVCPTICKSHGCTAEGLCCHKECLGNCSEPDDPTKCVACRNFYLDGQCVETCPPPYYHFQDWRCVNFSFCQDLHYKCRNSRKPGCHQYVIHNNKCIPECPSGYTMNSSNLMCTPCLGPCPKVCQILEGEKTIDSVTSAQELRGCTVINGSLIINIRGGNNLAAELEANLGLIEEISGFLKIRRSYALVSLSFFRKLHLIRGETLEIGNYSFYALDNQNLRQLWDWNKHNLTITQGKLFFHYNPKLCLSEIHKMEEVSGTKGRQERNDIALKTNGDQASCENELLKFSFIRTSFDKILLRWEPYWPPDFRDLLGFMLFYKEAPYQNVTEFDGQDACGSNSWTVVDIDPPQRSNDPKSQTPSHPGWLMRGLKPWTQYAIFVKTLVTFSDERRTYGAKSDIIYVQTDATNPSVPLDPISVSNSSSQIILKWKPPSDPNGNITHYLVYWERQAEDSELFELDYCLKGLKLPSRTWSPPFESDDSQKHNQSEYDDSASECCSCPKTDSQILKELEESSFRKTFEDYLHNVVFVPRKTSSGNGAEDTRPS
Chain of Insulin receptor (Rattus norvegicus) (P15127 764-1383 limits assumed): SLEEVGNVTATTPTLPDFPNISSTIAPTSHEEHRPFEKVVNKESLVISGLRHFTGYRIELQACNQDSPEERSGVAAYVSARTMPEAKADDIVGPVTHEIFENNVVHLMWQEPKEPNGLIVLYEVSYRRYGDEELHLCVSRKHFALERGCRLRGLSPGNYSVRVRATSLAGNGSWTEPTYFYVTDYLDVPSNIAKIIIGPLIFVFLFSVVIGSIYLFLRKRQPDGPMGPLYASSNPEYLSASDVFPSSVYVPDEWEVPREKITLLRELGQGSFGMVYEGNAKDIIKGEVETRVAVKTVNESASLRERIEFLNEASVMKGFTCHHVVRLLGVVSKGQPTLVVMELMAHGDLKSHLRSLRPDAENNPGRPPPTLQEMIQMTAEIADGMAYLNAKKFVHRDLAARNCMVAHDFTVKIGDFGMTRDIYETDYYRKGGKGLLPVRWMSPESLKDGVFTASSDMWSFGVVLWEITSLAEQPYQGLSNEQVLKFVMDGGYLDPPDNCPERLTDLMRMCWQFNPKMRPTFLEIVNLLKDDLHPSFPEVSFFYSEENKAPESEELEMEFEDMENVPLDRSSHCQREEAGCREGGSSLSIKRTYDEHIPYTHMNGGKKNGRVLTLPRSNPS

[30] = molecular target: Inositol 1,4,5-trisphosphate-gated calcium channel ITPR1 (Rattus norvegicus) (UniProt P29994); assay: Inhibition of rat IP3 receptor at 10 uM relative to control
[31] = molecular target: T4, GABA-A receptor; alpha-5/beta-3/gamma-2 (Homo sapiens) (UniProt P18507+P28472+P31644); assay: Inhibition of human GABA alpha5beta3gamma2 receptor muscimol binding site at 10 uM relative to control; type: protein-complex assay
[32] = molecular target: T4, GABA-A receptor; alpha-5/beta-3/gamma-2 (Homo sapiens); assay: Inhibition of human GABA alpha5beta3gamma2 receptor at 10 uM relative to control; type: protein-complex assay
[33] = molecular target: Vasoactive intestinal polypeptide receptor 1 (Homo sapiens) (UniProt P32241); assay: Inhibition of human VIP1 receptor at 10 uM relative to control
Chain of Vasoactive intestinal polypeptide receptor 1 (Homo sapiens) (P32241 whole entry, looked up): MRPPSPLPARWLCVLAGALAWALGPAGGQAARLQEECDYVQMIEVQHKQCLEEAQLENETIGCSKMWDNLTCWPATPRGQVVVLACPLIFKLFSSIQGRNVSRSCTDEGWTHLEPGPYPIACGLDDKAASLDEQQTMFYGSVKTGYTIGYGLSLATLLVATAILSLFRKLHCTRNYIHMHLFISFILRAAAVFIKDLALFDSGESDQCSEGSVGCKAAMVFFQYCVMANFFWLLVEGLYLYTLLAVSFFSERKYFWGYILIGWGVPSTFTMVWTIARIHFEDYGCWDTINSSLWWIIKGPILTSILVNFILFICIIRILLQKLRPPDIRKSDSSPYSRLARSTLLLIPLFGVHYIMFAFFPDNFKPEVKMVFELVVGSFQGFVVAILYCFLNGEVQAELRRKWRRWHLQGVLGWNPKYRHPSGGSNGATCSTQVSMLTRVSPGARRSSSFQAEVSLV

`COc1ccc(CNC(=O)c2cc(-c3cc(Cl)cc(Cl)c3)cnc2-c2cccnc2)cc1OC` showed an inhibition [1] of 39%, an inhibition [2] of 21% and an inhibition (D(3) dopamine receptor [3]) of 5%. It also gave an inhibition [4] of 0%, an inhibition [5] of 21% and an inhibition [6] of -10%. The inhibition [7] was 7%, the inhibition [8] was 23% and the inhibition [9] was 19%. The inhibition [10] was -4%, the inhibition [11] was -5% and the inhibition [12] was -2%. For the same compound, the inhibition (Caspase-8 (Homo sapiens)) was -1%, the inhibition [13] was -1% and the inhibition (D(3) dopamine receptor [14]) was 51%. The inhibition (Oryctolagus cuniculus) was 2%, the inhibition (Rattus norvegicus) was 1% and the inhibition (Cavia porcellus) was 15%. The inhibition [15] was 25%, the inhibition [16] was 13% and the inhibition [17] was 14%. For the same compound, the inhibition [18] was 30%, the inhibition [19] was 84% and the inhibition [20] was 30%. For the same compound, the inhibition [21] was 10%, the inhibition [22] was 17% and the inhibition (Cricetinae) was 0%. For the same compound, the inhibition [23] was 9%, the inhibition [24] was 14% and the inhibition [25] was 9%. The inhibition (Homo sapiens) was -1%, the inhibition [26] was 1% and the inhibition [27] was -2%. The inhibition [28] was 9%, the inhibition [29] was -5% and the inhibition [30] was 0%. For the same compound, the inhibition [31] was 14%, the inhibition [32] was 18% and the inhibition [33] was 6%.
